Experimental data from patent US20120225019A1, “Dual Fluorescence Assay For Determining Viability Of Parasitic Or Non-Parasitic Worms” (priority 2009, published 2012).
Entries after “also recorded” stand apart in the source; their conditions may differ. Structures can show the parent of a compound that is named as a salt.

What was measured:
[1] = test system: Haemonchus contortus L3 larvae; experiment: Haemonchus contortus FTIR; assay type: cell-based; details: worm samples; 3 mg/ml in DMSO added at 1/100; 24 hours at 37° C.
Procedure: 1. Haemonchus contortus L3 larvae were exsheated in 5% sodium hypochlorite for 10 minutes.
2. Following exsheathment the larvae were pelleted by centrifugation at 200×g for 2 minutes, the supernatant was removed and replaced with 1×PBS. This wash step was repeated twice to remove any traces of sodium hypochlorite then resuspended in DMEM containing L-glutamine and pen-strep but lacking in phenol red.
3. The larvae were aliquoted into a 384 well plate at approx. 100 larvae per well.
4. Compounds to be tested (aldicarb, levamisole and ivermectin) were made up at 3 mg/ml in DMSO then added to test wells at 1/100.
5. An identical quantity of DMSO, lacking any compound, was added to control wells.
6. The larvae were cultured for 24 hours at 37° C. following the addition of compounds (see FIG. 11). Wells containing media and compounds, but lacking in larvae, were also set up as controls for background.
For FTIR, two samples were run from each well containing larvae. The first consisted of 10 μl of supernatant taken from the top of the well without any disturbance. The second consisted of 10 μl containing worms and any sediment stirred up from the bottom of the well. A third 10 μl sample of media containing compounds but no larvae was also run for elimination of drug chemistry. Samples were dried at 50° C. for 45 minutes to prevent interference from water before being loaded into the FTIR machine.
Collected spectra were analysed using PyChem software. Two analyses were run for all data: principle components analysis (PCA; which compresses all of the data into smaller, discreet (2) components without there being any assumptions made) and discriminate function analysis (DFA; which takes information provided about class structure to run an algorithm to maximise distances between groups (different drug treatments) and minimise distances within groups (replicates of the same drug treatment)). The circles on the DFA graphs represent mean group centres i.e. treatments that segregate with confidence intervals of 95% (inner circle) and 99% (outer circle).

schistosomula = details: previously published activities; cited from earlier work
[2] = test system: Schistosoma mansoni schistosomula; experiment: dual-fluorescence (PI/FDA) schistosomula viability assay; assay type: cell-based; details: 10 μM, 24 hr
Procedure: Schistosoma mansoni (Puerto Rican strain) infected Biomphalaria glabrata snails were provided by Fred Lewis (Biomedical Research Institute, Rockville, Md., USA). Cercariae were shed from infected snails by exposure to light (60 min at room temperature, RT) and subsequently converted to schistosomula by mechanical transformation (Colley D G, Wikel S K (1974) Schistosoma mansoni: simplified method for the production of schistosomules. Experimental Parasitology 35: 44-51). Schistosomula were purified away from cercarial tails by centrifugation through a 60% percoll gradient (Lazdins J K, Stein M J, David J R, Sher A (1982) Schistosoma mansoni: rapid isolation and purification of schistosomula of different developmental stages by centrifugation on discontinuous density gradients of Percoli. Experimental Parasitology 53: 39).
Microscope examination was used to assess the quantity and quality of purified schistosomula. Schistosomula were cultured at 37° C. in T25 tissue culture flasks containing 9 ml DMEM (Dulbecco's Modified Eagle Medium, Sigma-Aldrich), lacking phenol red but containing 4500 mg/I glucose, supplemented with 10% foetal calf serum, 2 mM L-glutamine, 200 U/ml penicillin, 200 μg/ml streptomycin (all Sigma-Aldrich) in an atmosphere of 5% CO2 for 24 hr before any further experimental manipulations proceeded. Negligible parasite death occurred in this media during the 24 hr culturing period. Following this, schistosomula were aliquoted into black-sided, flat-bottom (optically clear), 96-well microtiter plates (Fisher Scientific) in 200 μl media or black-sided, flat-bottom (optically clear), 384-well microtiter plates (Matrix) in 40 μl media.
Stock solutions of all compounds were made up at 1 mM in appropriate solvents and stored at −80° C. All compounds were added to black-sided, flat-bottom (optically clear), 96-well microtiter plates containing schistosomula (1000 parasites/well in triplicate) at 10 μM concentrations. Schistosomula were cultured (as already indicated; 37° C., 5% CO2) in the presence of each compound for 24 hr before viability levels were assessed.
After the 24 hr culturing period in the presence of test compounds, and prior to addition of fluorescent dyes, all schistosomula were washed three times to remove test compound and culture media supplements. Each wash consisted of centrifuging microtiter plates containing schistosomula at 100×g for 5 min, removal of half the old culture media and replacement with an equal quantity of fresh DMEM (lacking phenol red). After washing the parasites, […] and FDA were simultaneously added to each well of the microtiter plate to obtain a final concentration of 2.0 μg/ml and 0.5 μg/ml respectively.
The 96-well microtiter plates, now containing fluorescently labeled parasites, were subsequently loaded into a BMG Labtech Polarstar Omega plate reader containing appropriate filters for the simultaneous detection of PI (544 nm excitation/620 nm emission) and FDA (485 nm excitation/520 nm emission). All fluorescent values were obtained with the plate reader incubator set at 37° C. to ensure efficient esterase conversion of FDA to fluorescein within live schistosomula. The plate reader automatically sets the photo multiplier tube (PMT) gain for each fluorescent dye and this may slightly vary between experiments. Inclusion of appropriate control samples (live and dead schistosomula) compensates for any inter-plate variations in gain settings.
All data were exported into Microsoft Excel for organization and into Minitab (Version 14) for statistical analyses. A One-Way Analysis of Variance (ANOVA) followed by post hoc testing with Fisher's least significant difference (LSD) was used to detect statistical differences between treatments. […].
Numbers of live and dead schistosomula in each well of a microtiter plate were calculated using the following equations: […]

[3] = test system: Schistosoma mansoni schistosomula; experiment: as above; assay type: cell-based
[4] = test system: Schistosoma mansoni schistosomula; experiment: microscopic examination of compound-treated schistosomula; assay type: cell-based; details: 24 hr
Procedure: Live and heat killed schistosomula stained with optimal concentrations (empirically derived from Jones K, Senft J (1985) An improved method to determine cell viability by simultaneous staining with fluorescein diacetate-propidium iodide. The Journal of Histochemistry and Cytochemistry 33: 77-79) of propidium iodide (PI, 2.0 μg/ml; Sigma-Aldrich), fluorescein diacetate (FDA, 0.5 μg/ml; Sigma-Aldrich) or both fluorophores were visualized at ×100 magnification using a Leica Axioplan microscope equipped with FITC (494 excitation) and Rhodamine (536 excitation) filters and a mercury vapor light source. A Hamamatsu CA74295 camera with Wasabi Version 1.4 software was used to capture photographic images of stained schistosomula.
Schistosomula, co-incubated with test compounds, were fluorescently visualized as above or unstained at ×100 magnification using an Olympus CK2 inverted microscope equipped with a stage extension plate and specimen holder for handling microtiter plates. A Kodak EasyShare DX7440 digital camera was used to capture images of unstained schistosomula.

[5] = test system: in vitro cultured, mechanically-transformed schistosomula; details: 10 μM, 24 hr after treatment; cited from earlier work

With `CNC(=O)O/N=C/C(C)(C)SC` [aldicarb] the “FTIR separation of treatment from DMSO control, worms” value (from here on “FTIR separation of treatment”) [1] was “good separation”.
For `C[C@@H]1[C@H](O)[C@@H](C)/C=C/C=C/C=C/C=C/C=C/C=C/C=C/[C@H](O[C@@H]2O[C@H](C)[C@@H](O)[C@H](N)[C@@H]2O)C[C@@H]2O[C@](O)(C[C@@H](O)C[C@@H](O)[C@H](O)CC[C@@H](O)C[C@@H](O)CC(=O)O[C@H]1C)C[C@H](O)[C@H]2C(=O)O` [amphotericin b], the “previously described effect on schistosomula phenotype” value (shortened to “previously described effect”) (schistosomula) is listed as “induce schistosomula mortality” and the “schistosomula viability by dual-fluorescent viability assay” value (shortened to “schistosomula viability”) [2] is listed as “induced measurable death”.
With `CC(=O)OC[C@H]1O[C@@H]([S-])[C@H](OC(C)=O)[C@@H](OC(C)=O)[C@@H]1OC(C)=O.CCP(CC)CC.[Au+]` [auranofin] the “auranofin-mediated mortality compared to vehicle treated (DMSO) or untreated parasites” value ([3]; 5 μM, 2.5 μM and 1.25 μM, 24 hr) was “Statistically-significant”, the “anti-schistosomula effect (viability per drug concentration)” value ([3]; 24 hours post-treatment) was “clear and titratable anti-schistosomula effect” and the “anti-schistosomula LD50 activity” value ([3]; auranofin titration series, fluorescent-based microtiter plate quantification, 24 hr) was 0.82 µM. The “PI/FDA staining of schistosomula by epifluorescent microscopy” value ([4]; 1 μM auranofin) was “displayed cells that were stained with either PI or FDA throughout the body”, the “death confirmed by microscopic examination of schistosomula” value ([4]; 10 μM) was 100% and the “lethality to schistosomula estimated by light microscopy” value [5] was 100%.
For `CC(C)COCC(CN(Cc1ccccc1)c1ccccc1)N1CCCC1` (stereo not shown) [bepridil], the “schistosomula viability” value [2] was “none showed strong decreases in viability”.
In the case of `C[C@@](Cc1ccc(O)c(O)c1)(NN)C(=O)O` [carbidopa], the “schistosomula viability” value [2] is reported as “none showed strong decreases in viability”.
In the case of `CN(C)CCCN1c2ccccc2Sc2ccc(Cl)cc21` [chlorpromazine hydrochloride], the “previously described effect” value (schistosomula) is listed as “induce schistosomula over-activity” and the “schistosomula viability” value [2] is listed as “did not affect schistosomula viability”.
In the case of `Cc1cc(C2CCCCC2)n(O)c(=O)c1` [ciclopirox], the “schistosomula viability” value [2] is reported as “none showed strong decreases in viability” and the “schistosomula phenotype by microscopic examination” value ([4]; 10 μM) is reported as “shape alterations in schistosomula phenotype”.
For `Nc1[nH]c(=O)ncc1F` [flucytosine], the “schistosomula viability” value [2] was “none showed strong decreases in viability”.
In the case of `CNCCC(Oc1ccc(C(F)(F)F)cc1)c1ccccc1` (stereo not shown) [fluoxetine hydrochloride], the “previously described effect” value (schistosomula) is listed as “induce schistosomula over-activity” and the “schistosomula viability” value [2] is listed as “did not affect schistosomula viability”.
For `CC(C)=CCC[C@]1(C)C=Cc2c(O)c3c(c(CC=C(C)C)c2O1)O[C@]12C(=C[C@@H]4C[C@H]1C(C)(C)O[C@@]2(C/C=C(/C)C(=O)O)C4=O)C3=O` [gambogic acid], the “previously described effect” value (schistosomula) is listed as “induce schistosomula mortality” and the “schistosomula viability” value [2] is listed as “induced measurable death”.
For `c1ccc([C@H]2CN3CCSC3=N2)cc1` [levamisole], the “FTIR separation of treatment” value [1] was “good separation”.
For `Clc1ccc(COC(Cn2ccnc2)c2ccc(Cl)cc2Cl)c(Cl)c1` (stereo not shown) [miconazole nitrate], the “previously described effect” value (schistosomula) is listed as “shape alteration (‘rounded’ phenotype)” and the “schistosomula viability” value [2] is listed as “did not affect schistosomula viability”.
For `O=C(Nc1ccc([N+](=O)[O-])cc1Cl)c1cc(Cl)ccc1O` [niclosamide], the “previously described effect” value (schistosomula) is given as “induce schistosomula mortality” and the “schistosomula viability” value [2] is given as “fluorescent viability measurements similar to those derived from untreated parasites”.
For `O=C(C1CCCCC1)N1CC(=O)N2CCc3ccccc3C2C1` (stereo not shown) [praziquantel], the “previously described effect” value (schistosomula) is listed as “shape alteration (‘rounded’ phenotype)”, the “schistosomula viability” value [2] is listed as “did not affect schistosomula viability; also recorded: does not kill in vitro” and the “schistosomula phenotype by microscopic examination” value ([4]; 10 μM) is listed as “strong rounded phenotype”.
For `COC(=O)[C@H]1[C@H]2C[C@@H]3c4[nH]c5cc(OC)ccc5c4CCN3C[C@H]2C[C@@H](OC(=O)/C=C/c2cc(OC)c(OC)c(OC)c2)[C@@H]1OC` [rescinnamine], the “schistosomula viability” value [2] was “none showed strong decreases in viability”.
For `CC[C@@H](C(=O)[C@@H](C)[C@@H](O)[C@H](C)[C@@H]1O[C@@H]([C@@H](CC)C(=O)O)CC[C@@H]1C)[C@H]1O[C@]2(C=C[C@@H](O)[C@]3(CC[C@@](C)([C@H]4CC[C@](O)(CC)[C@H](C)O4)O3)O2)[C@H](C)C[C@@H]1C` [sodium salinomycin], the “previously described effect” value (schistosomula) is listed as “induce schistosomula mortality”, the “schistosomula viability” value [2] is listed as “fluorescent viability measurements similar to those derived from untreated parasites” and the “schistosomula phenotype by microscopic examination” value ([4]; 10 μM) is listed as “strongly FDA positive (with some PI positive cells) (FIG. 6C), dark and granular (FIG. 6H), but motile”.
In the case of `CC[C@]1(O)C[C@@H]2CN(CCc3c([nH]c4ccccc34)[C@@](C(=O)OC)(c3cc4c(cc3OC)N(C)[C@H]3[C@@](O)(C(=O)OC)[C@H](OC(C)=O)[C@]5(CC)C=CCN6CC[C@]43[C@@H]65)C2)C1` [vinblastine], the “schistosomula viability” value [2] is reported as “none showed strong decreases in viability”.
With ivermectin the “FTIR separation of treatment” value [1] was “good separation”.
